Values of other authors in US20240130871A1, “DRUG-COATED ENDOVASCULAR DEVICES” (UNIVERSITY OF SOUTH CAROLINA, priority 2022, published 2024).

Details: current DCB devices

- delivered PTX lost to systemic circulation: > 90%
SMILES: CC(=O)O[C@H]1C(=O)[C@@]2(C)[C@H]([C@H](OC(=O)c3ccccc3)[C@]3(O)C[C@H](OC(=O)[C@H](O)[C@@H](NC(=O)c4ccccc4)c4ccccc4)C(C)=C1C3(C)C)[C@]1(OC(C)=O)CO[C@@H]1C[C@@H]2O [PTX, paclitaxel]
